Data taken from patent US10556907B2 (AbbVie Inc., priority 2015, dated 2020).
Where a name gives a salt, the structure may show the parent alone.

Key:
Assay type in all cases: cell-based
[1] = biological target: T1, human EDG1 (S1PR1) receptor (Homo sapiens, UniProt P21453); test: Method 2: Aequorin assay, cell clone CHO-A21-Edg1 #17; settings: (2): determined with method 2; read-out: S1P1 EC50
T1 construct: expressed in transfected cells; host or cells: CHO (clone CHO-A21-Edg1 #17)
Protocol: (§1) Agonistic activity was measured using two different methods, described below.
(§2) Genetically Engineered Cells
(§3) Cell clone CHO-A21-Edg1 #17 carries the transgenes human EDG1 (S1PR1) receptor (Accession number NP_001391.2), mitochondrially targeted Aequorin (active part corresponds to accession number 1SL8_A) and chimaeric Gaqi5=Gaq modified with the 5 C-terminal amino-acids replaced with those of the Gai protein (DCGLF). CHO-A2-S1P3 Mix is a cell pool ectopically expressing human EDG3 (S1PR3) receptor (Accession number NP_005217.2) mitochondrially targeted Aequorin (active part has a sequence similar to accession number AY601106.1) and GNA16 (Accession number NP_002059.3). Cell clone CHO-A21-EDG8 #12 carries the transgenes human EDG8 (S1PR5) receptor (Accession number NP_110387.1), mitochondrially expressed Aequorin (active part corresponds to accession number 1SL8_A) and chimaeric Gaqi5 (Gaq modified to present the 5 last amino-acids of the Gai protein “DCGLF”; see above). Cells are grown to mid-log phase in culture medium (HAM's F12, 10% FBS, 100 IU/mL penicillin, 100 μg/mL streptomycin, 250 μg/mL Zeocin, 400 μg/mL G418). 18 hours prior to frozen cells preparation, the medium is changed to remove the antibiotics.
(§4) 18 hours prior to the test, vials of frozen cells are quickly thawed in a 37° C. water bath, cells are recovered by centrifugation and resuspended in assay buffer (DMEM/HAM's F12 with HEPES, without phenol red+0.1% fatty acid-free BSA). Cells are gently agitated in suspension overnight at RT in presence of 5 μM of Coelenterazine h (Molecular Probes). On the day of the test, cells are diluted to their final working concentrations in assay buffer and agitated in suspension for 1 h at RT. Cells are then placed in the luminescence reader (Hamamatsu Functional Drug Screening System 6000, FDSS6000). During cells incubation, compounds are prepared in 100% DMSO, and subsequently diluted in assay buffer. Compounds are then dispensed in the assay plate (black, clear-bottom, 384-well plate). After binding of agonists to the human S1P receptor the intracellular calcium concentration increases and binding of calcium to the Aequorin/Coelenterazine complex leads to an oxidation reaction of coelenterazine, which results in the production of […], coelenteramide, CO2 and light (Dmax 469 nm). The luminescent response is dependent on the agonist concentration. For agonist testing, 30 μL of cell suspension are injected on 30 μL of test compound or reference agonist in the assay plate. The resulting emission of light is recorded for 90 seconds using the FDSS6000. Dose response curves with the reference compounds are performed before testing the compounds. S1P is the reference agonist and JTE-013 the reference antagonist for S1P2. […]
(§5) Luminescence data are integrated over the reading interval for agonist and antagonist modes. To standardize the emission of recorded light (determination of the “100% signal”) across plates and across different experiments, some of the wells contain 100 μM digitonin or a saturating concentration of ATP (20 μM). Plates also contain the reference agonist at a concentration equivalent to the EC80 obtained during the test validation and the EC100. Dose-response data from test compounds were analyzed with XLfit (IDBS) software using nonlinear regression applied to a sigmoidal dose-response model and the following equation: • XL Fit fit Model 203: 4 Parameter Logistic Model • A: Bottom • B: TOP • C: LogEC50 • D: Hill fit=(A+((B−A)/(1+(((10^C)/x)^D)))) inv=((10^C)/((((B−A)/(y−A))−1)^(1/D))) res=(y−fit)

[2] = biological target: T2, human EDG8 (S1PR5) receptor (Homo sapiens, UniProt Q9H228); test: Method 2: Aequorin assay, cell clone CHO-A21-EDG8 #12; settings: agonist potency, determined with method 2 (symbols E-G); read-out: S1P5 EC50 range
T2 construct: expressed in transfected cells; host or cells: CHO (clone CHO-A21-EDG8 #12)
T2 sequence (Q9H228 whole entry): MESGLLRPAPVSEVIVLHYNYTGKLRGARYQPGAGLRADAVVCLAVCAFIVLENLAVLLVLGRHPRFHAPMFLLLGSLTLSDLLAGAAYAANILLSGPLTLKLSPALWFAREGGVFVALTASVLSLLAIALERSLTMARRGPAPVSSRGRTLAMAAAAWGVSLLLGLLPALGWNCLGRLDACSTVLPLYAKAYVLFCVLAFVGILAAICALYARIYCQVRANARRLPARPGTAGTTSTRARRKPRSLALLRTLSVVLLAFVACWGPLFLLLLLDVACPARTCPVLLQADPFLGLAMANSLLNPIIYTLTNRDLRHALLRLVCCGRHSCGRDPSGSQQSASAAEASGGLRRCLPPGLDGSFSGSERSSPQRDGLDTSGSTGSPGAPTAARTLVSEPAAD
Protocol: as §1, §2, §3, §4, §5

[3] = biological target: T3, human EDG3 (S1PR3) receptor (Homo sapiens, UniProt Q99500); test: Method 2: Aequorin assay, cell pool CHO-A2-S1P3 Mix; settings: (2): determined with method 2
T3 construct: expressed in transfected cells; host or cells: CHO (cell pool CHO-A2-S1P3 Mix)
T3 sequence (Q99500 whole entry): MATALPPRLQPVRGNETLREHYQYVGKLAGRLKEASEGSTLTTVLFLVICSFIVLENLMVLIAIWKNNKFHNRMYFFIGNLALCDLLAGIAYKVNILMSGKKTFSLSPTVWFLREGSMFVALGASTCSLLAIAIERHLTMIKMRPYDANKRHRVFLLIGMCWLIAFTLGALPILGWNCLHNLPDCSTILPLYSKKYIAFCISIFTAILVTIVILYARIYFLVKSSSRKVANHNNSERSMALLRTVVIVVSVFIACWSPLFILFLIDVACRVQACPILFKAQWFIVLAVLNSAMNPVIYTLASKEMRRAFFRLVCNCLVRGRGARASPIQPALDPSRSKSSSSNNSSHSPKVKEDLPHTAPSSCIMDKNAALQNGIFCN
Protocol: as §1, §2, §3, §4, §5

[4] = biological target: T4, human S1PR1 receptor (Homo sapiens, UniProt P21453); test: Method 1: intracellular Ca2+ release (FLIPR, Calcium 5) in recombinant CHO-K1 cells; settings: (1): determined with method 1; read-out: S1P1 EC50
T4 construct: host or cells: CHO-K1
T4 sequence (P21453 whole entry): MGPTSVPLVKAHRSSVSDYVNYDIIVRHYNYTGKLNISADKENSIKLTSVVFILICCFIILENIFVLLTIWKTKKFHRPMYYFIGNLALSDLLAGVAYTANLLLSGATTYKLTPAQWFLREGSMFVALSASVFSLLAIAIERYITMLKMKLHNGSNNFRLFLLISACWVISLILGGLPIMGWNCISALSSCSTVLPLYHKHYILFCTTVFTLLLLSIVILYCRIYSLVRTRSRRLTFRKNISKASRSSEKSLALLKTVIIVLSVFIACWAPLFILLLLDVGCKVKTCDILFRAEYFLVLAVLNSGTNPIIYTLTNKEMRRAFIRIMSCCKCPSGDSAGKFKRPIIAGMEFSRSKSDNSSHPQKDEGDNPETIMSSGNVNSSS
In short: (§6)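 Agonist EC50 values come from nonlinear fits of FLIPR Ca2+ fluorescence, normalized to the phospho-fingolimod reference curve. Recombinant CHO-K1 (receptor plus Gq/i5, aequorin) dye-loaded 1 h at 37° C in pH 7.4 Hepes/probenecid/BSA buffer. Antagonist mode: 10 min preincubation before phospho-fingolimod at EC80.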

[5] = biological target: T5, human S1PR3 receptor (Homo sapiens, UniProt Q99500); test: as above; settings: (1): determined with method 1; read-out: S1P3 EC50
T5 construct: host or cells: CHO-K1
T5 sequence (Q99500 whole entry): as the sequence (Q99500 whole entry) above
In short: as §6

[6] = biological target: T6, human S1PR5 receptor (Homo sapiens, UniProt Q9H228); test: as above; settings: agonist potency, determined with method 1 (symbols A-D); read-out: S1P5 EC50 range
T6 construct: host or cells: CHO-K1
T6 sequence (Q9H228 whole entry): as the sequence (Q9H228 whole entry) above
In short: as §6

[7] = biological target: T7, human S1PR4 receptor (Homo sapiens, UniProt O95977); test: as above; settings: (1): determined with method 1; read-out: S1P4 EC50
T7 construct: host or cells: CHO-K1
T7 sequence (O95977 1-384): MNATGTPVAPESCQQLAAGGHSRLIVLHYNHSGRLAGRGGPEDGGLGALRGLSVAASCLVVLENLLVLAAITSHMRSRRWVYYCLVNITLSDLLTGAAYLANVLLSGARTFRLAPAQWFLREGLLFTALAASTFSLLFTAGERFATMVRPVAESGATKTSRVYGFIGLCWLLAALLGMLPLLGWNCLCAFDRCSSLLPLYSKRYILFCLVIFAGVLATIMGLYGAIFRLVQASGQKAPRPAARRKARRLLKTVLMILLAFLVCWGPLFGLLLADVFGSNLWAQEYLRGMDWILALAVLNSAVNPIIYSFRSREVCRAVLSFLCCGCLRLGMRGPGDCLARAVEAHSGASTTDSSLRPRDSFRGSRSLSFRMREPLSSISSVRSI
In short: as §6

T1 sequence (P21453 whole entry): as the sequence (P21453 whole entry) above

Compound | EC50 [1] [nM] | EC50 [2] [nM] | EC50 [3] [nM] | EC50 [4] [nM] | EC50 [5] [nM] | EC50 [6] [nM] | EC50 [7] [nM]
O=C(O)CCN1CCc2nc(-c3ccc(OCc4ccccc4)cc3)ccc2C1 [Compound 129, 3-(2-(4-(benzyloxy)phenyl)-7,8-dihydro-1,6-naphthyridin-6(5H)-yl)propanoic acid] | > 1000 | 100 to 1000 | > 1000 |  |  |  | 
O=C(O)CCN1CCc2nc(-c3ccc(OCc4c(Cl)cccc4Cl)cc3)ccc2C1 [Compound 130, 3-(2-(4-((2,6-dichlorobenzyl)oxy)phenyl)-7,8-dihydro-1,6-naphthyridin-6(5H)-yl)propanoic acid] | > 1000 | 100 to 1000 | > 1000 |  |  |  | 
O=C(O)CCN1CCc2nc(-c3ccc(OCc4cccc(F)c4F)cc3)ccc2C1 [Compound 131, 3-(2-(4-((2,3-difluorobenzyl)oxy)phenyl)-7,8-dihydro-1,6-naphthyridin-6(5H)-yl)propanoic acid] | > 1000 | < 100 | > 1000 |  |  |  | 
O=C(O)CCN1CCc2nc(-c3ccc(OCc4ccccc4F)cc3)ccc2C1 [Compound 132, 3-(2-(4-((2-fluorobenzyl)oxy)phenyl)-7,8-dihydro-1,6-naphthyridin-6(5H)-yl)propanoic acid] | > 1000 | < 100 | > 1000 |  |  |  | 
O=C(O)CCN1CCc2nc(-c3ccc(OCc4ccccc4)cc3F)ccc2C1 [Compound 134, 3-(2-(4-(benzyloxy)-2-fluorophenyl)-7,8-dihydro-1,6-naphthyridin-6(5H)-yl)propanoic acid] | > 1000 | < 100 | > 1000 |  |  |  | 
Cc1ccc(COc2ccc(-c3ncc4c(n3)CCN(CC(C)CC(=O)O)C4)c(F)c2)cc1C(F)(F)F (centres unmarked) [Compound 279, 4-[2-[2-fluoro-4-[[4-methyl-3-(trifluoromethyl)phenyl]methoxy]phenyl]-7,8-dihydro-5H-pyrido[4,3-d]pyrimidin-6-yl]-3-methyl-butanoic acid 2,2,2-trifluoroacetic acid salt] |  |  |  | > 1000 | > 1000 | 10 to 100 | > 1000
O=C(O)CC1(CN2CCc3nc(-c4ccc(OCc5ccc(Cl)cc5)cc4)ncc3C2)CC1 [Compound 281, 2-((4(2-(4-((4-chlorobenzyl)oxy)phenyl)-7,8-dihydropyrido[4,3-d]pyrimidin-6(5H)-yl)methyl)cyclopropyl)acetic acid] |  |  |  | > 1000 | > 1000 | 10 to 100 | > 1000
CC(CC(=O)O)CN1CCc2nc(-c3ccc(OCc4ccc(C(C)(C)C)cc4)cc3F)ncc2C1 (centres unmarked) [Compound 283, 4-[2-[4-[(4-tert-butylphenyl)methoxy]-2-fluoro-phenyl]-7,8-dihydro-5H-pyrido[4,3-d]pyrimidin-6-yl]-3-methyl-butanoic acid 2,2,2-trifluoroacetic acid salt] |  |  |  | > 1000 | > 1000 | 10 to 100 | > 1000
CC(CC(=O)O)CN1CCc2nc(-c3ccc(OCc4ccccc4Cl)cc3F)ncc2C1 (centres unmarked) [Compound 284, 4-[2-[4-[(2-chlorophenyl)methoxy]-2-fluoro-phenyl]-7,8-dihydro-5H-pyrido[4,3-d]pyrimidin-6-yl]-3-methyl-butanoic acid 2,2,2-trifluoroacetic acid salt] |  |  |  | > 1000 | > 1000 | 10 to 100 | > 1000
O=C(O)CC1(CN2CCc3nc(-c4ccc(OCc5cccc(Cl)c5)cc4)ncc3C2)CC1 [Compound 285, 2-((4(2-(4-((3-chlorobenzyl)oxy)phenyl)-7,8-dihydropyrido[4,3-d]pyrimidin-6(5H)-yl)methyl)cyclopropyl)acetic acid] |  |  |  | > 1000 | > 1000 | 100 to 1000 | < 1000

The remaining lines, values ahead:

EC50 [1] [nM] | EC50 [2] [nM] | EC50 [3] [nM] | EC50 [4] [nM] | EC50 [5] [nM] | EC50 [6] [nM] | EC50 [7] [nM] | Compound
> 1000 | 100 to 1000 | > 1000 |  |  |  |  | CC(CN1CCc2nc(-c3ccc(OCc4ccccc4)cc3)ncc2C1)C(=O)O (centres unmarked) [Compound 6, 3-(2-(4-(benzyloxy)phenyl)-7,8-dihydropyrido[4,3-d]pyrimidin-6(5H)-yl)-2-methylpropanoic acid]
> 1000 | 100 to 1000 | > 1000 |  |  |  |  | CC(CN1CCc2nc(-c3ccc(OCc4c(Cl)cccc4Cl)cc3)ncc2C1)C(=O)O (centres unmarked) [Compound 7, 3-(2-(4-(2,6-dichlorobenzyloxy)phenyl)-7,8-dihydropyrido[4,3-d]pyrimidin-6(5H)-yl)-2-methylpropanoic acid]
> 1000 | 100 to 1000 | > 1000 |  |  |  |  | CC(CN1CCc2nc(-c3ccc(OCc4cc(F)cc(F)c4)cc3)ncc2C1)C(=O)O (centres unmarked) [Compound 9, 3-(2-(4-((3,5-difluorobenzyl)oxy)phenyl)-7,8-dihydropyrido[4,3-d]pyrimidin-6(5H)-yl)-2-methylpropanoic acid]
> 1000 | 1000 to 10000 | > 1000 |  |  |  |  | O=C(O)CCN1CCc2nc(-c3ccc(OCc4cccc(F)c4F)cc3)ncc2C1 [Compound 69, 3-(2-(4-((2,3-difluorobenzyl)oxy)phenyl)-7,8-dihydropyrido[4,3-d]pyrimidin-6(5H)-yl)propanoic acid]
> 1000 | 100 to 1000 | > 1000 |  |  |  |  | O=C(O)CCN1CCc2nc(-c3ccc(OCc4c(Cl)cccc4Cl)cc3)ncc2C1 [Compound 70, 3-(2-(4-((2,6-dichlorobenzyl)oxy)phenyl)-7,8-dihydropyrido[4,3-d]pyrimidin-6(5H)-yl)propanoic acid]
> 1000 | 100 to 1000 | > 1000 |  |  |  |  | CC(CN1CCc2nc(-c3ccc(OCc4ccccc4)cc3)ccc2C1)C(=O)O (centres unmarked) [Compound 101, 3-(2-(4-(benzyloxy)phenyl)-7,8-dihydro-1,6-naphthyridin-6(5H)-yl)-2-methylpropanoic acid]
> 1000 | 1000 to 10000 | > 1000 |  |  |  |  | CC(CC(=O)O)N1CCc2nc(-c3ccc(OCc4ccccc4)cc3)ccc2C1 (centres unmarked) [Compound 113, 3-(2-(4-(benzyloxy)phenyl)-7,8-dihydro-1,6-naphthyridin-6(5H)-yl)butanoic acid]
